{
  "source": "paper PMC7549094",
  "about": "(Journal of Medicinal Chemistry, 2020)",
  "test_in_all_cases": "receptor profile (Table S4)",
  "key": {"hr 5-HT3": {"target": "T1, hr 5-HT3 (Homo sapiens, UniProt P46098)", "T1 sequence (P46098 24-478)": "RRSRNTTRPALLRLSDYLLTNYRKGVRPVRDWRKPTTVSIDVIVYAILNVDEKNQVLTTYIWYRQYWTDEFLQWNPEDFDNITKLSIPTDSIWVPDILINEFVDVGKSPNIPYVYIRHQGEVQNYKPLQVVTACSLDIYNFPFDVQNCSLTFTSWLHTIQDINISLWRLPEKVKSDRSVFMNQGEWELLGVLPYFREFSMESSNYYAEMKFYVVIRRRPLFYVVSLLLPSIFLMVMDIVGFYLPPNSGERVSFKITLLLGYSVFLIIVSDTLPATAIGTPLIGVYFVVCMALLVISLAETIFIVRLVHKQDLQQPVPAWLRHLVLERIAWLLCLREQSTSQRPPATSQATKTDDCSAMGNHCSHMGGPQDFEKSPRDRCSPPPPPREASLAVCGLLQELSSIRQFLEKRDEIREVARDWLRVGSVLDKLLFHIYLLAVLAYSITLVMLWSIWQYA", "assay_type": "binding"}, "hr M2 antag": {"target": "T2, hr M2 antag (Homo sapiens, UniProt P08172)", "T2 sequence (P08172 1-466)": "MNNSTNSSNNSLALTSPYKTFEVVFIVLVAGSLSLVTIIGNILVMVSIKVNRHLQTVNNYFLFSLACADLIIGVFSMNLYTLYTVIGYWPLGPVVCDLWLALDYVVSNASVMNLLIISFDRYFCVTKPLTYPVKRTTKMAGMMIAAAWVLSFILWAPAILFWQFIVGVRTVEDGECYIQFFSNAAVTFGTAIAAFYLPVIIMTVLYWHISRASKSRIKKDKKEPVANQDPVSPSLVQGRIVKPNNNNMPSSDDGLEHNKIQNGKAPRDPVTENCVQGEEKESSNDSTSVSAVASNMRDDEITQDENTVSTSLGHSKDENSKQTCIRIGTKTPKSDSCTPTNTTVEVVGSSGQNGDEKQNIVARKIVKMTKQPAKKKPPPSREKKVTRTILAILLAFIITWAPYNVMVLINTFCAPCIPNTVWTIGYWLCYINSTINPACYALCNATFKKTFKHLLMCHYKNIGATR", "assay_type": "biochemical"}, "hr DAT": {"target": "hr DAT (Homo sapiens, UniProt Q01959)", "sequence (Q01959 whole entry)": "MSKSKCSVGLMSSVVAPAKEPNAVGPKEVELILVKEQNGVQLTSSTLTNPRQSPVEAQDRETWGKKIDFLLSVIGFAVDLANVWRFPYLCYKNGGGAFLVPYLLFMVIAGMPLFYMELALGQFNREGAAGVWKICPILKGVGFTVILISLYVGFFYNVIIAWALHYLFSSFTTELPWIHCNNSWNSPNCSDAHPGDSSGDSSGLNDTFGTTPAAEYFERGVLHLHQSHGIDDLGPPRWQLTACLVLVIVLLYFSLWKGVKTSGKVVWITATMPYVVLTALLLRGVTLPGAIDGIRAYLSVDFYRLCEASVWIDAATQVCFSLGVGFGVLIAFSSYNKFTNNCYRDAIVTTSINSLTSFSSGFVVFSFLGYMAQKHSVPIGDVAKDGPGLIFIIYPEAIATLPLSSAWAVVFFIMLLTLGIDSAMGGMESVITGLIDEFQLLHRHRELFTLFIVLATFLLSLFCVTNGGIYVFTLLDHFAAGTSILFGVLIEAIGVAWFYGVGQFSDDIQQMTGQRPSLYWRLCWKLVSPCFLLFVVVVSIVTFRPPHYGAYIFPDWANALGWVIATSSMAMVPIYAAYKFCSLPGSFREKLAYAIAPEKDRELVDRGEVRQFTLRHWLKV", "assay_type": "binding"}, "rr AR ag": {"target": "T3, rr AR ag (Rattus norvegicus, UniProt P15207)", "T3 sequence (P15207 1-902)": "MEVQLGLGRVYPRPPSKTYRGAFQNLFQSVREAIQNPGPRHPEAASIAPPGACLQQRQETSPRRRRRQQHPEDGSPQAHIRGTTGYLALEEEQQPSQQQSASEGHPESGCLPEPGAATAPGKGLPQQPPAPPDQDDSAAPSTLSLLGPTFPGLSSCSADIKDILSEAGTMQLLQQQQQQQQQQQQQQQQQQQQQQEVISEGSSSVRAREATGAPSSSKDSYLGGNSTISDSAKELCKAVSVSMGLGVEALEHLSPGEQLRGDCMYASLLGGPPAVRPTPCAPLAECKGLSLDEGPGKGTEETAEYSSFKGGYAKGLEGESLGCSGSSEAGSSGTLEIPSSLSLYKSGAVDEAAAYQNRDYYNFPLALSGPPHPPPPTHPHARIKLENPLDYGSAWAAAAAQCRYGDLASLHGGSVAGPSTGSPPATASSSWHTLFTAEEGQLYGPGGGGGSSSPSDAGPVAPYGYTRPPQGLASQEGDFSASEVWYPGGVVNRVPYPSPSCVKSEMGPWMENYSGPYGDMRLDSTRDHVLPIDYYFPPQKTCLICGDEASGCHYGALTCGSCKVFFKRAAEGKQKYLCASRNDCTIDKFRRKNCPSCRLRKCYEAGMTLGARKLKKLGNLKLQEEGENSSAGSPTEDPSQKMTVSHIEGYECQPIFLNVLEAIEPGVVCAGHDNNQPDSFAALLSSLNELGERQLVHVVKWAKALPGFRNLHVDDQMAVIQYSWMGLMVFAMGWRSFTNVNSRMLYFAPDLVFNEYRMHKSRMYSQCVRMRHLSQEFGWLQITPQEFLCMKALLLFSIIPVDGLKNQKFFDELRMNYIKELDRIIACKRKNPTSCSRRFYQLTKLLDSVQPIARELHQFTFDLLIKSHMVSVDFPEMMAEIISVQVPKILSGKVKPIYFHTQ", "assay_type": "biochemical"}, "hr M1": {"target": "T4, hr M1 (Homo sapiens, UniProt P11229)", "T4 sequence (P11229 1-460)": "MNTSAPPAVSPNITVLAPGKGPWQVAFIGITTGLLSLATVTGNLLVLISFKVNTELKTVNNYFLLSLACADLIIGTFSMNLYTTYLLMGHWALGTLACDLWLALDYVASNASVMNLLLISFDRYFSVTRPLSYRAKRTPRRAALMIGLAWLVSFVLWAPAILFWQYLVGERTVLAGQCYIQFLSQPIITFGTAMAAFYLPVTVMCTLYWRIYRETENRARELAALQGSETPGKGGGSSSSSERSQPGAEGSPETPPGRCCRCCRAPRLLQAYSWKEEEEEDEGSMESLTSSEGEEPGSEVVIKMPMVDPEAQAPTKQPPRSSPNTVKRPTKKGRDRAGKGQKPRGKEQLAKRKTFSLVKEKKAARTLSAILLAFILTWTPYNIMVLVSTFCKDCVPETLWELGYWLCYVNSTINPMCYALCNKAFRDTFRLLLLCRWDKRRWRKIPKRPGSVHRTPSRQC", "assay_type": "binding"}},
  "data": [
    {"smiles": "Cc1nc(C)c(C(=O)Nc2ccc(F)c(-c3nc4ncc(-c5ncccc5C)cn4n3)c2)o1", "note": "[compound 1, N-(4-Fluoro-3-(6-(3-methylpyridin-2-yl)-[1,2,4]triazolo[1,5-a]pyrimidin-2-yl)phenyl)-2,4-dimethyloxazole-5-carboxamide]", "values": [
      {"measurement": "EC50/IC50", "setting": "hr 5-HT3; hr 5-HT3", "result": "> 30", "unit": "µM"},
      {"measurement": "inhibition at 10 µM", "setting": "hr 5-HT3; read-out: % inh/act @ 10 µM", "result": 22, "unit": "%"},
      {"measurement": "inhibition at 30 µM", "setting": "hr 5-HT3; read-out: % inh/act @ 30 µM", "result": 19, "unit": "%"},
      {"measurement": "EC50/IC50", "setting": "hr M2 antag; hr M2 antag", "result": "> 30", "unit": "µM"},
      {"measurement": "inhibition at 10 µM", "setting": "hr M2 antag; read-out: % inh/act @ 10 µM", "result": 16, "unit": "%"},
      {"measurement": "inhibition at 30 µM", "setting": "hr M2 antag; read-out: % inh/act @ 30 µM", "result": 31, "unit": "%"},
      {"measurement": "EC50/IC50", "setting": "hr DAT; hr DAT", "result": "> 30", "unit": "µM"},
      {"measurement": "inhibition at 10 µM", "setting": "hr DAT; read-out: % inh/act @ 10 µM", "result": 17, "unit": "%"},
      {"measurement": "inhibition at 30 µM", "setting": "hr DAT; read-out: % inh/act @ 30 µM", "result": 22, "unit": "%"},
      {"measurement": "inhibition at 10 µM", "setting": "rr AR ag; read-out: % inh/act @ 10 µM", "result": 1, "unit": "%"},
      {"measurement": "inhibition at 30 µM", "setting": "rr AR ag; read-out: % inh/act @ 30 µM", "result": 0, "unit": "%"},
      {"measurement": "EC50/IC50", "setting": "rr AR ag; rr AR ag", "result": "> 30", "unit": "µM"},
      {"measurement": "EC50/IC50", "setting": "hr M1; hr M1", "result": "> 30", "unit": "µM"},
      {"measurement": "inhibition at 10 µM", "setting": "hr M1; read-out: % inh/act @ 10 µM", "result": 25, "unit": "%"},
      {"measurement": "inhibition at 30 µM", "setting": "hr M1; read-out: % inh/act @ 30 µM", "result": 26, "unit": "%"}
    ]}
  ]
}
